24 compounds from patent US7507729B2, “Substituted imidazo-[1,5-a][1,2,4]triazolo[1,5-d][1,4] benzodiazepine derivatives” (priority 2005, dated 2009) can be followed below.

In general, Ki refers to the equilibrium dissociation constant of an inhibitor or competing ligand from its target.

In assay [1] the target is T1, GABA A receptor α5β3γ2 (hα5) (Homo sapiens, UniProt P18507+P31644).
T1 construct: expressed in transfected cells; host or cells: HEK293, transiently transfected; membranes
Briefly: [3H]flumazenil competition binding, membranes of HEK293 cells expressing human GABA A α5β3γ2. The note with it: [3H]flumazenil 0.5 nM, 1 hour at 4° C., means of two determinations; read-out: Ki[nM] hα5. The protocol: (§1) The affinity of compounds at GABA A receptor subtypes was measured by competition for [^3H]flumazenil (85 Ci/mmol; Roche) binding to HEK293 cells expressing rat (stably transfected) or human (transiently transfected) receptors of composition α1β3γ2, α2β3γ2, α3β3γ2 and α5β3γ2.
(§2) Cell pellets were suspended in Krebs-tris buffer (4.8 mM KCl, 1.2 mM CaCl2, 1.2 mM MgCl2, 120 mM NaCl, 15 mM Tris; pH 7.5; binding assay buffer), homogenized by polytron for ca. 20 sec on ice and centrifuged for 60 min at 4° C. (50000 g; Sorvall, rotor: SM24=20000 rpm). The cell pellets were resuspended in Krebs-tris buffer and homogenized by polytron for ca. 15 sec on ice. Protein was measured (Bradford method, Bio-Rad) and aliquots of 1 mL were prepared and stored at −80° C.
(§3) Radioligand binding assays were carried out in a volume of 200 μL (96-well plates) which contained 100 μL of cell membranes, [^3H]flumazenil at a concentration of 1 nM for α1, α2, α3 subunits and 0.5 nM for α5 subunits and the test compound in the range of 10^−10-3×10^−6 M.
(§4) Nonspecific binding was defined by 10^−5 M diazepam and typically represented less than 5% of the total binding. Assays were incubated to equilibrium for 1 hour at 4° C. and harvested onto GF/C uni-filters (Packard) by filtration using a Packard harvester and washing with ice-cold wash buffer (50 mM Tris; pH 7.5). After drying, filter-retained radioactivity was detected by liquid scintillation counting. Ki values were calculated using Excel-Fit (Microsoft) and are the means of two determinations.

Assay [2] has as its target T2, GABA A receptor α1β3γ2 (hα1) (Homo sapiens, UniProt P14867+P18507).
T2 construct: expressed in transfected cells; host or cells: HEK293, transiently transfected; membranes
As to the kind of experiment: [3H]flumazenil competition binding, membranes of HEK293 cells expressing human GABA A α1β3γ2. The protocol:
as §1, §2, §3, §4

Setting [3] is: [3H]flumazenil 1 nM, 1 hour at 4° C., means of two determinations, read-out: Ki[nM] hα1.

Counter-ions that a name gives are not always drawn. Like-named read-outs stand apart in the source and are kept apart here.

Regarding “3-Bromo-10-chloro-6-(hydroxy-phenyl-ethyl)-9H-imidazo[1,5-a][1,2,4]triazolo[1,5-d][1,4]benzodiazepine [Example 54]”, the figures for the Ki in assay [1] and in assay [2] (setting [3]) were 0.9 nM and 34.6 nM, respectively.

With `CCOC(=O)c1ncn2c1Cn1nc(COC)nc1-c1cc(Cl)ccc1-2` [Example 4, Ethyl 3-chloro-6-methoxymethyl-9H-imidazo[1,5-a][1,2,4]triazolo[1,5-d][1,4]benzodiazepine-10-carboxylate], the Ki in assay [1] was 0.3 nM; in assay [2], 8.5 nM.

Take `Clc1ccc2c(c1)-c1nc(Cn3nccn3)nn1Cc1c(Cl)ncn1-2` [Example 10, 3,10-Dichloro-6-[1,2,3]triazol-2-ylmethyl-9H-imidazo[1,5-a][1,2,4]triazolo[1,5-d][1,4]benzodiazepine]: the Ki in assay [1] is 0.4 nM; in assay [2], 63.3 nM.

`Clc1ccc2c(c1)-c1nc(Cn3ccnn3)nn1Cc1c(Cl)ncn1-2` [Example 11, 3,10-Dichloro-6-[1,2,3]triazol-1-ylmethyl-9H-imidazo[1,5-a][1,2,4]triazolo[1,5-d][1,4]benzodiazepine]: the Ki in assay [1] is 0.5 nM; in assay [2], 48.3 nM.

On to `Clc1ccc2c(c1)-c1nc(Cn3cncn3)nn1Cc1c(Cl)ncn1-2` [Example 12, 3,10-Dichloro-6-[1,2,4]triazol-1-ylmethyl-9H-imidazo[1,5-a][1,2,4]triazolo[1,5-d][1,4]benzodiazepine], for which the Ki was determined as 0.8 nM in assay [1] and 51.8 nM in assay [2].

With `Clc1ccc2c(c1)-c1nc(Cn3cccn3)nn1Cc1c(Cl)ncn1-2` [Example 13, 3,10-Dichloro-6-pyrazol-1-ylmethyl-9H-imidazo[1,5-a][1,2,4]triazolo[1,5-d][1,4]benzodiazepine], the values for the Ki in assay [1] and in assay [2] were 0.9 nM and 30.7 nM, respectively.

With `Clc1ccc2c(c1)-c1nc(Cn3nc4ccccc4n3)nn1Cc1c(Cl)ncn1-2` [Example 21, 6-Benzotriazol-2-ylmethyl-3,10-dichloro-9H-imidazo[1,5-a][1,2,4]triazolo[1,5-d][1,4]benzodiazepine], the Ki in assay [2] (setting [3]) is 133 nM.

Turning to `Clc1ccc2c(c1)-c1nc(Cn3nnc4ccccc43)nn1Cc1c(Cl)ncn1-2` [Example 22, 6-Benzotriazol-1-ylmethyl-3,10-dichloro-9H-imidazo[1,5-a][1,2,4]triazolo[1,5-d][1,4]benzodiazepine], the inhibitory constant (Ki) in assay [1] was found to be 0.4 nM; in assay [2] it was 53 nM.

As for `Clc1ccc2c(c1)-c1nc(Cn3cc4ccccc4n3)nn1Cc1c(Cl)ncn1-2` [Example 26, 3,10-Dichloro-6-indazol-2-ylmethyl-9H-imidazo[1,5-a][1,2,4]triazolo[1,5-d][1,4]benzodiazepine], the Ki in assay [2] (setting [3]) was determined as 111 nM.

On to `O=C1CCCN1Cc1nc2n(n1)Cc1c(Cl)ncn1-c1ccc(Br)cc1-2` [Example 49, 3-Bromo-10-chloro-6-(2-oxo-pyrrolidin-1-ylmethyl)-9H-imidazo[1,5-a][1,2,4]triazolo[1,5-d][1,4]benzodiazepine], for which the inhibition constant Ki in assay [1] came to 0.9 nM; in assay [2], 114 nM.

`O=C1OCCN1Cc1nc2n(n1)Cc1c(Cl)ncn1-c1ccc(Br)cc1-2` [Example 50]: the affinity in assay [2], expressed as Ki, was 85.7 nM.

As for `OC(c1cccnc1)c1nc2n(n1)Cc1c(Cl)ncn1-c1ccc(Br)cc1-2` (stereo not shown) [Example 58, 3-Bromo-10-chloro-6-(hydroxy-pyridin-3-yl-methyl)-9H-imidazo[1,5-a][1,2,4]triazolo[1,5-d][1,4]benzodiazepine], the Ki in assay [1] was 0.7 nM; in assay [2] (setting [3]), 69.4 nM.

In the case of `O=C(Cc1nc2n(n1)Cc1c(Cl)ncn1-c1ccc(Br)cc1-2)NC1CCCC1` [Example 61, 3-Bromo-10-chloro-6-cyclopentylcarbamoylmethyl-9H-imidazo[1,5-a][1,2,4]triazolo[1,5-d][1,4]benzodiazepine], the Ki in assay [1] was 0.6 nM; in assay [2], 91.7 nM.

For `O=C(Cc1nc2n(n1)Cc1c(Cl)ncn1-c1ccc(Br)cc1-2)NC1CCOCC1` [Example 62, 3-Bromo-10-chloro-6-[(tetrahydro-pyran-4-ylcarbamoyl)-methyl]-9H-imidazo[1,5-a][1,2,4]triazolo[1,5-d][1,4]benzodiazepine], the results for the Ki in assay [1] and in assay [2] were 0.7 nM and 88.4 nM, respectively.

For the compound `O=C(Cc1nc2n(n1)Cc1c(Cl)ncn1-c1ccc(Br)cc1-2)NCc1cccnc1` [Example 63, 3-Bromo-10-chloro-6-{[(Pyridin-3-ylmethyl)-carbamoyl]-methyl}-9H-imidazo[1,5-a][1,2,4]triazolo[1,5-d][1,4]benzodiazepine], the inhibition constant Ki was 0.8 nM in assay [1] and 64.7 nM in assay [2].

Consider `O=C(Cc1nc2n(n1)Cc1c(Cl)ncn1-c1ccc(Br)cc1-2)NCC1CC1` [Example 64, 3-Bromo-10-chloro-6-[(cyclopropylmethyl-carbamoyl)-methyl]-9H-imidazo[1,5-a][1,2,4]triazolo[1,5-d][1,4]benzodiazepine], for which the Ki came to 0.5 nM in assay [1] and 68.8 nM in assay [2].

`O=C(Cc1nc2n(n1)Cc1c(Cl)ncn1-c1ccc(Br)cc1-2)NCCO` [Example 65, 3-Bromo-10-chloro-6-[(2-hydroxy-ethylcarbamoyl)-methyl]-9H-imidazo[1,5-a][1,2,4]triazolo[1,5-d][1,4]benzodiazepine] displayed a Ki in assay [2] of 149 nM.

`COCC1CN(Cc2nc3n(n2)Cc2c(Cl)ncn2-c2ccc(Br)cc2-3)C(=O)O1` (stereo not shown) [Example 83, 3-Bromo-10-chloro-6-(5-methoxymethyl-2-oxo-oxazolidin-3-ylmethyl)-9H-imidazo[1,5-a][1,2,4]triazolo[1,5-d][1,4]benzodiazepine]: the Ki in assay [2] (setting [3]) is 113 nM.

Turning to `Cc1ccc(Cc2nc3n(n2)Cc2c(C)ncn2-c2ccc(Br)cc2-3)cn1` [Example 124, 3-Bromo-10-methyl-6-(6-methyl-pyridin-3-ylmethyl)-9H-imidazo[1,5-a][1,2,4]triazolo[1,5-d][1,4]benzodiazepine], in assay [2] (setting [3]), the Ki was found to be 219 nM.

Take `Cc1ncn2c1Cn1nc(Cn3ccnn3)nc1-c1cc(Br)ccc1-2` [Example 162, 3-Bromo-10-methyl-6-[1,2,3]triazol-1-ylmethyl-9H-imidazo[1,5-a][1,2,4]triazolo[1,5-d][1,4]benzodiazepine hydrochloride (1:1)]: the Ki in assay [2] (setting [3]) stood at 152 nM.

With `COc1ccccc1Cc1nc2n(n1)Cc1c(C)ncn1-c1ccc(Br)cc1-2` [Example 168, 3-Bromo-6-(2-methoxy-benzyl)-10-methyl-9H-imidazo[1,5-a][1,2,4]triazolo[1,5-d][1,4]benzodiazepine hydrochloride (1:1)], affinity in assay [2] was put at a Ki of 63.4 nM.

Consider `Cc1cc(Cc2nc3n(n2)Cc2c(C)ncn2-c2ccc(Cl)cc2-3)ccn1` [Example 191, 3-Chloro-10-methyl-6-(2-methyl-pyridin-4-ylmethyl)-9H-imidazo[1,5-a][1,2,4]triazolo[1,5-d][1,4]benzodiazepine], for which the inhibition constant (Ki) in assay [2] (setting [3]) is 266 nM.

For `Cc1ncn2c1Cn1nc(Cn3ccnn3)nc1-c1cc(Cl)ccc1-2` [Example 364, 3-Chloro-10-methyl-6-[1,2,3]triazol-1-ylmethyl-9H-imidazo[1,5-a][1,2,4]triazolo[1,5-d][1,4]benzodiazepine hydrochloride (1:1)], the Ki in assay [2] (setting [3]) was determined as 134 nM.

`Cc1ncn2c1Cn1nc(Cc3ccn[nH]3)nc1-c1ccccc1-2` [Example 380, 10-Methyl-6-(2H-pyrazol-3-ylmethyl)-9H-imidazo[1,5-a][1,2,4]triazolo[1,5-d][1,4]benzodiazepine hydrochloride (1:1)] displayed a Ki in assay [2] of 56.6 nM.
